# Tests used:
# [1] = tested on: A375 cells; experiment: Tumorosphere viability, drug sensitivity score; assay type: cell-based; conditions: B-RafV600E mutant A375 spheroids, 72 h, 0 to 20 μM
# [2] = tested on: H-RasG12V; experiment: H-Ras nanoclustering-FRET; assay type: cell-based; conditions: HEK cells, 5 μM (FTI-277 0.2 μM), 24 h
# [3] = tested on: Hs 578T cells; experiment: Mammosphere formation assay; assay type: cell-based; conditions: 6 days suspension then 72 h with 5 μM
# [4] = tested on: K-RasG12V; experiment: K-Ras nanoclustering-FRET; assay type: cell-based; conditions: HEK cells, 24 h; for dose-dependent effect on K-RasG12V nanoclustering-FRET: various concentrations, compared with 24 and 25
# [5] = biological target: K-RasG12V/PDE6D interaction (Homo sapiens, UniProt O43924); experiment: PDE6D/K-Ras interaction by FLIM-FRET in HEK cells; assay type: cell-based; conditions: 5 μM, 24 h
# K-RasG12V/PDE6D interaction, sequence (O43924 whole entry): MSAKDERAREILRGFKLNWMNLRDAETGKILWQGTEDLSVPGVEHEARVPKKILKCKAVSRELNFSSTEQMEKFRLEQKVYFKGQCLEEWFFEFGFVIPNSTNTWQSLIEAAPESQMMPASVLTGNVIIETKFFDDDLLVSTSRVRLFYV
# [6] = biological target: PDE6D/avi-K-RasFMe (Homo sapiens, UniProt O43924); experiment: SPR inhibition of PDE6D binding to captured avi-K-RasFMe
# PDE6D/avi-K-RasFMe, sequence (O43924 whole entry): as above
# [7] = tested on: MDA-MB-231 cells; experiment: Mammosphere formation assay; assay type: cell-based; conditions: MDA-MB-231, 6 days suspension then 72 h with 5 μM
# [8] = tested on: NCI-H358 cells; experiment: Tumorosphere viability, drug sensitivity score; assay type: cell-based; conditions: NCI-H358 tumorospheres, 72 h, 0 to 20 μM
IC50 [6] [µM],Kd [6] [µM],SMILES,activity on spheroid viability (DSS) [1],effect on H-RasG12V nanoclustering-FRET [2],effect on mammosphere formation (SFE) [3],effect on K-RasG12V/PDE6D FLIM-FRET [5],also measured
–,–,C=CC(=O)N1CCN(c2ncnc3c(F)c(-c4c(O)cccc4F)c(Cl)cc23)CC1 [ARS-1620],inactive,–,–,–,–
–,–,COC(=O)c1ccc(C(=O)NCCCCCCOP(=O)(OC)OCC(C)(C)C(=O)CSC(C)=O)cc1N (stereo not drawn) [compound 23],inactive,No effect,but not H-RasG12V-mutant Hs 578T-mammosphere formation,performed as well as 15 and somewhat better than 22,dose-dependent effect on K-RasG12V nanoclustering-FRET [4]: significant dose-dependent reduction
18.9 ± 0.2,14.1 ± 0.2,O=C(NCCCCCCO)c1cc2ccccc2oc1=O [compound 14],–,–,–,did not block the interaction,–
–,–,"c1ccc(Cn2c(-c3ccc(OC[C@H](C4CCNCC4)n4c(-c5ccccc5)nc5ccccc54)cc3)nc3ccccc32)cc1 [Deltarasin, reference compound]",equally high activity in both cell lines,reduced FRET of both Ras isoforms about equally,–,–,"activity on spheroid viability (DSS) [8]: equally high activity in both cell lines; effect on K-RasG12V nanoclustering-FRET ([4]; 5 μM (FTI-277 0.2 μM)): reduced FRET of both Ras isoforms about equally; IC50 ([4]; read-out: IC50 K-Ras nanoclustering-FRET (mean ± SEM), n = 3): 0.7 ± 0.4 µM"
10.27 ± 0.03,7.62 ± 0.02,CCOC(=O)C(C)(COP(=O)(OC)OCCCCCCNC(=O)c1ccc(C(=O)OC)c(N)c1)C(=O)CSC(C)=O (stereo not drawn) [compound 22],–,No effect,–,–,fold lower affinity than analogue 23 ([6]; SPR): 2.6 fold; dose-dependent effect on K-RasG12V nanoclustering-FRET [4]: significant dose-dependent reduction
–,–,COC(=O)c1ccc(C(=O)NCCCCOP(=O)(OC)OCC(C)(C)C(=O)CSC(C)=O)cc1N (stereo not drawn) [compound 25],–,–,inactive,performed better than 24,effect on mammosphere formation (SFE) [7]: inactive

SMILES,IC50 [6] [µM],Kd [6] [µM],activity on spheroid viability (DSS) [1],effect on H-RasG12V nanoclustering-FRET [2],effect on mammosphere formation (SFE) [3],effect on K-RasG12V/PDE6D FLIM-FRET [5],also measured
CCOC(=O)C(C)(COP(=O)(OC)OCC1CCC(CNC(=O)c2cc3ccccc3oc2=O)CC1)C(=O)CSC(C)=O (stereo not drawn) [compound 17],6.7 ± 0.1,4.97 ± 0.07,–,–,no significant effect,lacked in cellulo activity,effect on mammosphere formation (SFE) [7]: no significant effect

# From article PMC6964506 (ACS Omega, 2019)
